Laboratory results taken from ChEMBL document CHEMBL2346538, “Synthesis, cyclooxygenase inhibitory effects, and molecular modeling study of 4-aryl-5-(4-(methylsulfonyl)phenyl)-2-alkylthio and -2-alkylsulfonyl-1H-imidazole derivatives” (Bioorg Med Chem, 2013).

Molecular target: T1, Prostaglandin G/H synthase 2 (Homo sapiens, UniProt P35354)
T1 sequence (P35354 whole entry): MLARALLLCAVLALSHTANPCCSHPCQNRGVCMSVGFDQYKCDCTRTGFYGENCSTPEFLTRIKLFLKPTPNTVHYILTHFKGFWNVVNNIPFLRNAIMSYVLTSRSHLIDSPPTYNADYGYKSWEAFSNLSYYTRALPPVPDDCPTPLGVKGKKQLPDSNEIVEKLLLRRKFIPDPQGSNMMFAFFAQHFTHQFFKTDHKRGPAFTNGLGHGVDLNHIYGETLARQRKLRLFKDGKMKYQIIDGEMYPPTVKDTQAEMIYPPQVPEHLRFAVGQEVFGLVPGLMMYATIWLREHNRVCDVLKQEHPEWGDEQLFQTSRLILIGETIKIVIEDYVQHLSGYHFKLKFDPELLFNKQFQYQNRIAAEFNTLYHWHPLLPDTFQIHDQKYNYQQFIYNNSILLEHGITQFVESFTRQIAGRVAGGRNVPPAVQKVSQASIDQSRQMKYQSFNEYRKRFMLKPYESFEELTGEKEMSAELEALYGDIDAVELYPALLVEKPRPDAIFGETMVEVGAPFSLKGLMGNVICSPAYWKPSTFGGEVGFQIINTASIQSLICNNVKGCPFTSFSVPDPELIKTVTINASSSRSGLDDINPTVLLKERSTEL
Experiment: Inhibition of COX2 in human blood assessed as TxB2 level after 1 hr by enzyme immunoassay

IC50 [nM]	SMILES
280	CS(=O)(=O)c1ccc(-c2[nH]c(S(C)(=O)=O)nc2-c2ccc(F)cc2)cc1
70	CSc1nc(-c2ccc(F)cc2)c(-c2ccc(S(C)(=O)=O)cc2)[nH]1
100	CSc1nc(-c2ccc(Cl)cc2)c(-c2ccc(S(C)(=O)=O)cc2)[nH]1
280	CS(=O)(=O)c1ccc(-c2[nH]c(S(C)(=O)=O)nc2-c2ccccc2)cc1
310	CS(=O)(=O)c1ccc(-c2[nH]c(S(C)(=O)=O)nc2-c2ccc(Cl)cc2)cc1
50	CCSc1nc(-c2ccccc2)c(-c2ccc(S(C)(=O)=O)cc2)[nH]1
80	CCSc1nc(-c2ccc(F)cc2)c(-c2ccc(S(C)(=O)=O)cc2)[nH]1
110	CCSc1nc(-c2ccc(Cl)cc2)c(-c2ccc(S(C)(=O)=O)cc2)[nH]1
240	CCS(=O)(=O)c1nc(-c2ccccc2)c(-c2ccc(S(C)(=O)=O)cc2)[nH]1
310	CCS(=O)(=O)c1nc(-c2ccc(F)cc2)c(-c2ccc(S(C)(=O)=O)cc2)[nH]1
320	CCS(=O)(=O)c1nc(-c2ccc(Cl)cc2)c(-c2ccc(S(C)(=O)=O)cc2)[nH]1
60	CSc1nc(-c2ccccc2)c(-c2ccc(S(C)(=O)=O)cc2)[nH]1
